Target: Focal adhesion kinase (FAK) (Homo sapiens, UniProt Q05397)
Test: biochemical

Sequence of Focal adhesion kinase (FAK) (Q05397 393-698): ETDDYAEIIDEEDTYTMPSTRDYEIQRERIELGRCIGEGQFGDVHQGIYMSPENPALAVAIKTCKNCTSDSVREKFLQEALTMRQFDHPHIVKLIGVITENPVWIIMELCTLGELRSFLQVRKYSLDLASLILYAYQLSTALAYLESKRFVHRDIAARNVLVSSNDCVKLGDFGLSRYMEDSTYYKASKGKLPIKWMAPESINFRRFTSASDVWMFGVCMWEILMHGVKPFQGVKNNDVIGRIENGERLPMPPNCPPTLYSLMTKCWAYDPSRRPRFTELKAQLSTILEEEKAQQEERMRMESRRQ

- IC50: 9 ± 0.03 nM
SMILES: CS(=O)(=O)c1cccc(CNc2nc(Nc3ccc4c(c3)CCC(=O)N4)ncc2C(F)(F)F)c1 [PF573228, 6‐[[4‐[(3‐methylsulfonylphenyl)methylamino]‐5‐(trifluoromethyl)pyrimidin‐2‐yl]amino]‐3,4‐dihydro‐1H‐quinolin‐2‐one]
